Experimental data: ChEMBL document CHEMBL1201862, “PubChem BioAssay data set” (2004)
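Interpolation was linear, between the two tested concentrations surrounding the appropriate level; five concentrations were tested over 48 hours in 96-well plates. GI50 marks 50% less growth.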 Activity calls are given as the source filed them. No stated cut-off is given here; in the data, active = GI50 up to about 1.1 µM and inactive = higher.

Columns and labels:
Experiment in all cases: inhibition of tumour cell growth, NCI panel, 48 h
[1] = tested on: DLD-1
[2] = tested on: DMS-114
[3] = tested on: DMS-273
[4] = tested on: HOP-18
[5] = tested on: KM-20L2
[6] = tested on: LXFL 529
[7] = tested on: RXF 631
[8] = tested on: XF498
[9] = tested on: SNB-78

SMILES	GI50 [1]	GI50 [2]	GI50 [3]	GI50 [4]	GI50 [5]	GI50 [6]	GI50 [7]	GI50 [8]	GI50 [9]
C[C@]12CCCC(=O)C1(O)C[C@H](C(=O)O)CC2 (some centres not stated)	> 100 µM (inactive)	> 100 µM (inactive)	> 100 µM (inactive)	> 100 µM (inactive)	> 100 µM (inactive)	> 100 µM (inactive)	> 100 µM (inactive)	> 100 µM (inactive)	
O=c1c2ccccc2nc(-c2ccccc2)n1NC1OC(CO)C(O)C(O)C1O (configuration not stated)	> 100 µM (inactive)	> 100 µM (inactive)	> 100 µM (inactive)	1.46 µM (inactive)	> 100 µM (inactive)	> 100 µM (inactive)	> 100 µM (inactive)	> 100 µM (inactive)	> 100 µM (inactive)
CC#CC1C2CCCC1(CSc1ccccc1)NC(=O)O2 (configuration not stated)	> 100 µM (inactive)	> 100 µM (inactive)	> 100 µM (inactive)	> 100 µM (inactive)	> 100 µM (inactive)	> 100 µM (inactive)	> 100 µM (inactive)	> 100 µM (inactive)	> 100 µM (inactive)
CCCCC1CC(c2ccc(Cl)cc2)=NO1 (configuration not stated)	> 100 µM (inactive)	> 100 µM (inactive)	> 100 µM (inactive)	> 100 µM (inactive)		> 100 µM (inactive)			> 100 µM (inactive)
Cc1ccc(NC(=O)CC2SC(Nc3cccc(Cl)c3C)=NC2=O)cc1 (configuration not stated)	48.8 µM (inactive)	29.9 µM (inactive)	> 100 µM (inactive)		70.8 µM (inactive)	32.4 µM (inactive)	> 100 µM (inactive)	46.2 µM (inactive)	60.7 µM (inactive)
OC1(c2ccccc2)OC(C#Cc2ccccc2)(c2ccccc2)c2ccccc21 (configuration not stated)	3.06 µM (inactive)	3.13 µM (inactive)	3.4 µM (inactive)		3.33 µM (inactive)	6.22 µM (inactive)	3.13 µM (inactive)	7.26 µM (inactive)	6.98 µM (inactive)
NC(=O)c1ccc([N+](=O)[O-])cc1	> 100 µM (inactive)	> 100 µM (inactive)	> 100 µM (inactive)		> 100 µM (inactive)	> 100 µM (inactive)	> 100 µM (inactive)	> 100 µM (inactive)	> 100 µM (inactive)
COc1ccc(OC)c(NC(=O)C(=O)NNC(=O)c2sc(NNC(C)=O)nc2C)c1					33.4 µM (inactive)	29.4 µM (inactive)		25.6 µM (inactive)	27 µM (inactive)
Cn1nc(-c2ccccc2)c(C(=O)/C=C/c2ccc(F)cc2)c(N2CCCC2)c1=O	11.2 µM (inactive)	11.5 µM (inactive)	14.8 µM (inactive)	14.6 µM (inactive)	13.1 µM (inactive)	12.8 µM (inactive)		20.8 µM (inactive)	
COc1cc(OC(=O)c2c(O)cc(O)c(O)c2C)cc(C)c1C(=O)Oc1cc(C)c(C(=O)O)c(O)c1	> 100 µM (inactive)	> 100 µM (inactive)	> 100 µM (inactive)	> 100 µM (inactive)	> 100 µM (inactive)	> 100 µM (inactive)	> 100 µM (inactive)	> 100 µM (inactive)	> 100 µM (inactive)
COc1ccc(CCc2cc(OC)c(O)c(OC)c2)cc1	60.1 µM (inactive)	29 µM (inactive)	46.5 µM (inactive)		> 100 µM (inactive)	54.8 µM (inactive)	88.1 µM (inactive)	79.4 µM (inactive)	30.9 µM (inactive)
CC1Nc2ccccc2NC1C=C(C#N)C#N (configuration not stated)	14.4 µM (inactive)	19.8 µM (inactive)	12.2 µM (inactive)	20 µM (inactive)	16.3 µM (inactive)	13 µM (inactive)	11.9 µM (inactive)	17.1 µM (inactive)	15.3 µM (inactive)
Cc1ccccc1-n1c(C)nc2c1C(=O)c1ccccc1C2=O		31.1 µM (inactive)	42.5 µM (inactive)						58.2 µM (inactive)
c1cc2[se][se]c3c4cccc5[se][se]c(c(c1)c23)c54	> 100 µM (inactive)	> 100 µM (inactive)	> 100 µM (inactive)	0.331 µM (active)	> 100 µM (inactive)	> 100 µM (inactive)		> 100 µM (inactive)	> 100 µM (inactive)
COC(=O)C1Cc2c([nH]c3ccccc23)C(c2ccccc2O)N1Cc1ccccc1 (configuration not stated)	74 µM (inactive)	19.8 µM (inactive)	23.8 µM (inactive)	31.6 µM (inactive)	> 46.5 µM (inactive)	31.5 µM (inactive)	21.2 µM (inactive)		34 µM (inactive)
CCOC(=O)c1cc2c(OCc3ccccc3)c(OC)cc3c2c(n1)N(c1ccc(OC)cc1)C(C)C3 (configuration not stated)	> 50 µM (inactive)	38.3 µM (inactive)	> 50 µM (inactive)	> 50 µM (inactive)	2.47 µM (inactive)	39.4 µM (inactive)		> 50 µM (inactive)	
O=c1c2ccccc2nc(-c2ccccc2)n1NC(=S)Nc1ccc(Cl)cc1[N+](=O)[O-]	87.9 µM (inactive)	31.2 µM (inactive)	49.8 µM (inactive)	27.4 µM (inactive)		> 100 µM (inactive)			
CCC[C@H]1O[C@@H]2CC(=O)O[C@@H]2C2=C1C(=O)C=CC2=O	17.7 µM (inactive)		13.6 µM (inactive)	18 µM (inactive)	21.4 µM (inactive)	15.6 µM (inactive)			23.3 µM (inactive)
COCCN1C2=CCCCC2=Nc2c(N)nc(N)nc21	> 100 µM (inactive)	> 100 µM (inactive)	> 100 µM (inactive)	> 100 µM (inactive)	> 100 µM (inactive)	> 100 µM (inactive)	> 100 µM (inactive)	> 100 µM (inactive)	> 100 µM (inactive)
COC(=O)C1=C(CO)C2C=CC1C2 (configuration not stated)	> 100 µM (inactive)		> 100 µM (inactive)	> 100 µM (inactive)	> 100 µM (inactive)	> 100 µM (inactive)	> 100 µM (inactive)	> 100 µM (inactive)	> 100 µM (inactive)
CCOC(=O)c1c2cccccc2n2c(=O)cc(C)nc12			> 100 µM (inactive)		> 100 µM (inactive)	> 100 µM (inactive)			> 100 µM (inactive)
O=C(c1ccc(Cl)cc1Cl)N(/N=C/C=C/c1ccccc1)c1nnc(-c2ccccc2)c(-c2ccccc2)n1	> 100 µM (inactive)	> 100 µM (inactive)	> 100 µM (inactive)		> 100 µM (inactive)		> 100 µM (inactive)	> 100 µM (inactive)	> 100 µM (inactive)
COc1ccc(OC)c2c1C(=O)C1CC1(Br)C2=O (configuration not stated)	> 100 µM (inactive)	> 100 µM (inactive)	> 100 µM (inactive)		> 100 µM (inactive)	> 100 µM (inactive)		> 100 µM (inactive)	
CC(=O)C1Cn2c(nc3ccccc32)C[Se]1 (configuration not stated)	3.63 µM (inactive)	2.12 µM (inactive)		2.61 µM (inactive)	12.9 µM (inactive)	3.2 µM (inactive)	2.14 µM (inactive)		4.47 µM (inactive)
CSc1ccc(/C=C2/C[N+](C)(C)C/C(=C/c3ccc(SC)cc3)C2=O)cc1	7.78 µM (inactive)	6.44 µM (inactive)		31.8 µM (inactive)			35.2 µM (inactive)	15.7 µM (inactive)	62.2 µM (inactive)
